Test results reported in ChEMBL document CHEMBL1201862, “PubChem BioAssay data set” (2004).
Activity calls are given as the source filed them.

Experiments:
[1] = insulin promoter down-regulators in MIN6 cells, imaging, high-content screening, mouse beta cells (AID 1628); assay type: functional
[2] = cytotoxicity in MIN6 insulinoma cells, dose response, cytotoxicity control, cell-based, mouse insulinoma (AID 2122); assay type: functional;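 note: confirmatory high-throughput counterscreen run to flag cytotoxic compounds; mouse MIN-6 beta cells carrying an insulin promoter eGFP reporter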
[3] = system: Streptococcus sp. 'group A'; assay: growth inhibition of control SK(-) GAS strain, dose response, counter-screen for streptokinase expression inhibitor project, luminescence, kanamycin, BacTiterGlo, confirmation (AID 1900); assay type: functional, organism-based
Streptokinase A = biological target: T1, Streptokinase A (Streptococcus pyogenes serotype M1, UniProt P10520); assay: S. pyogenes streptokinase expression inhibitors, potency, dose response, plasminogen activation absorbance, OD405 (AID 1914); assay type: functional, Streptococcus pyogenes M1 GAS;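 note: secreted streptokinase activity via plasminogen activation per viability signal from cell pellet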
T1 sequence (P10520 whole entry): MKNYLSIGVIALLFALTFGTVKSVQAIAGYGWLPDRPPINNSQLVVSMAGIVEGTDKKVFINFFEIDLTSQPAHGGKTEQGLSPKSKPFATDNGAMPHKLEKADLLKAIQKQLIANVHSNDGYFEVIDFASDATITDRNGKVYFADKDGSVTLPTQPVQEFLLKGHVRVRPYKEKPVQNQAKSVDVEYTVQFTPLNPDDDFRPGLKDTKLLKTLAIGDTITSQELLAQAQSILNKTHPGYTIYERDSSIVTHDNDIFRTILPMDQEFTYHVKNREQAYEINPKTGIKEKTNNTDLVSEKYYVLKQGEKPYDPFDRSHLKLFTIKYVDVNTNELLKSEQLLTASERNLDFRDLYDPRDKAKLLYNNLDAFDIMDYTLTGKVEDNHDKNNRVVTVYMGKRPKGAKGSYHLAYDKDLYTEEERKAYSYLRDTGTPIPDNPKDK

[4] = biological target: T2, Calpain-2 catalytic subunit (Sus scrofa, UniProt P43367); assay: pig calpain II inhibitor potency, dose response, biochemical, fluorogenic peptide substrate (AID 1420); assay type: functional
T2 sequence (P43367 whole entry): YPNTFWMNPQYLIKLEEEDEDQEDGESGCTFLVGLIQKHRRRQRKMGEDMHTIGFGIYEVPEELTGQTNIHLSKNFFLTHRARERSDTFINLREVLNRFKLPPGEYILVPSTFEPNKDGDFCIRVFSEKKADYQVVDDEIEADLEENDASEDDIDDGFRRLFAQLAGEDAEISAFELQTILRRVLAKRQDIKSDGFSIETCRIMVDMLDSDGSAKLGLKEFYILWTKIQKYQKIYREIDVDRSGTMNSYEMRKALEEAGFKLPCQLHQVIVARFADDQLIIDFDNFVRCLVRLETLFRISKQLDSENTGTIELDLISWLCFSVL

Streptococcus = assay: Group A Streptococcus viability loss, dose response, counter-screen for streptokinase expression inhibitor project, luminescence, BacTiterGlo (AID 1915); assay type: functional, organism-based;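 note: potency for reduction of bacterial viability or growth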
Escherichia coli = assay: microbe, parasite or virus in culture
SUMO-activating enzyme [5] = biological target: T3, SUMO-activating enzyme (Homo sapiens, UniProt Q9UBT2); assay: SUMOylation inhibitor hit validation, confirmation, SUMOylation inhibitor project, biochemical, AlphaScreen (AID 2018); assay type: functional
T3 sequence (Q9UBE0 whole entry): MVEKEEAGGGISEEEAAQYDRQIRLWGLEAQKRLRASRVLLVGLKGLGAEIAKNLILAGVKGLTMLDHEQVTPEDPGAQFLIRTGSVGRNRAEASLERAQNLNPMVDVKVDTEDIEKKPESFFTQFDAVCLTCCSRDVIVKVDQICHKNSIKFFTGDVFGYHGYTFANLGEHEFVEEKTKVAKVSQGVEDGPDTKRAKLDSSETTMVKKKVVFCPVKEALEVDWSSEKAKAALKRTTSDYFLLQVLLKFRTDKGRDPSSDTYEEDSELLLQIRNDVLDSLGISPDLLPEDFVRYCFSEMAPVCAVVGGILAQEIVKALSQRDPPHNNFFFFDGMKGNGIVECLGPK
T3 sequence (Q9UBT2 whole entry): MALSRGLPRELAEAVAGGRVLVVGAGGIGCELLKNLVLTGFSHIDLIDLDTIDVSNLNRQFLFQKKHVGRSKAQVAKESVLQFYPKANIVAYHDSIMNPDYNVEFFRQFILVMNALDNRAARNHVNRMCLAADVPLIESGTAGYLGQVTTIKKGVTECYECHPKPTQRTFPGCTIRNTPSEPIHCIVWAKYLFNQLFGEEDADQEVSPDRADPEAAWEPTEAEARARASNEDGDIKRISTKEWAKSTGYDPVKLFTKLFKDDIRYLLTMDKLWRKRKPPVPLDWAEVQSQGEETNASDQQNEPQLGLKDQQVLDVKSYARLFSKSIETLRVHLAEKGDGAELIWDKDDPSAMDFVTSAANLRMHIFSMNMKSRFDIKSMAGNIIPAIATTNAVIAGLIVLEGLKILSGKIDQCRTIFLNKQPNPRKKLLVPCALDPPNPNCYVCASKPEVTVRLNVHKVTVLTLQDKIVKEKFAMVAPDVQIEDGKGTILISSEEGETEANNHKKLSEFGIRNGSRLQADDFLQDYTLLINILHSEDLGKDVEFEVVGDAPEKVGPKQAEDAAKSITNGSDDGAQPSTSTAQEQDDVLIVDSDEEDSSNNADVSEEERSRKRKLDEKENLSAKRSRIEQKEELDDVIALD

SUMO-activating enzyme [6] = biological target: T3, SUMO-activating enzyme; assay: inhibitors of in vitro SUMOylation cascade, primary screen, biochemical, HTRF, uHTS (AID 2006); assay type: protein-complex assay
SUMO E1/E2 = SUMO E1/E2 (Homo sapiens, UniProt P63279+Q9UBE0+Q9UBT2); assay: SAR analysis of SUMOylation using HTRF in an in-Vitro dose response assay. [Related pubchem assays (depositor defined):AID2006, AID2011, AID2018, AID2069, AID2658]; assay type: functional
Chain of SUMO E1/E2 (Q9UBE0 whole entry, the tested form may be a part): as the sequence (Q9UBE0 whole entry) above
Chain of SUMO E1/E2 (Q9UBT2 whole entry, the tested form may be a part): as the sequence (Q9UBT2 whole entry) above
Chain of SUMO E1/E2 (P63279 whole entry, the tested form may be a part): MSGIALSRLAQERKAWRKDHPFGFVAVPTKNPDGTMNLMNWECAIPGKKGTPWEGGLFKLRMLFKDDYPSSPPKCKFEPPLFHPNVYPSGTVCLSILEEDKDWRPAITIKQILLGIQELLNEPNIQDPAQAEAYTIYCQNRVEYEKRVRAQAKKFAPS

[7] = biological target: T4, Carboxy-terminal domain RNA polymerase II polypeptide A small phosphatase 1 (Homo sapiens, UniProt Q9GZU7); assay: inhibitors of CTDSP1, concentration-response testing, biochemical assay, absorbance-based, actives from ultra-high-throughput screening (AID 540297); assay type: functional
T4 sequence (Q9GZU7 whole entry): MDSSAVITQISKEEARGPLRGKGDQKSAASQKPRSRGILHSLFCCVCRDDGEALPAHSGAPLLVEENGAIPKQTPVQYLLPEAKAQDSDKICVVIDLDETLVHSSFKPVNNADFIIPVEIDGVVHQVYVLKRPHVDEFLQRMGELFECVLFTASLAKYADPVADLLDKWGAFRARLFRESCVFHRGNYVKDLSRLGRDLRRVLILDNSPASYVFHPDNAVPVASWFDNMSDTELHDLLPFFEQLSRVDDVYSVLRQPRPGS

HEK293 [8] = assay: cells; details: Homo sapiens
HEK293 [9] = assay: cells; details: Homo sapiens; remark: listed apart in the source
[10] = biological target: T5, Replicative DNA helicase DnaB (Mycobacterium tuberculosis, UniProt P9WMR3); assay: DnaB intein splicing inhibitors, dose response, biochemical, cell-free fluorescence (AID 449749); assay type: functional
T5 sequence (P9WMR3 whole entry): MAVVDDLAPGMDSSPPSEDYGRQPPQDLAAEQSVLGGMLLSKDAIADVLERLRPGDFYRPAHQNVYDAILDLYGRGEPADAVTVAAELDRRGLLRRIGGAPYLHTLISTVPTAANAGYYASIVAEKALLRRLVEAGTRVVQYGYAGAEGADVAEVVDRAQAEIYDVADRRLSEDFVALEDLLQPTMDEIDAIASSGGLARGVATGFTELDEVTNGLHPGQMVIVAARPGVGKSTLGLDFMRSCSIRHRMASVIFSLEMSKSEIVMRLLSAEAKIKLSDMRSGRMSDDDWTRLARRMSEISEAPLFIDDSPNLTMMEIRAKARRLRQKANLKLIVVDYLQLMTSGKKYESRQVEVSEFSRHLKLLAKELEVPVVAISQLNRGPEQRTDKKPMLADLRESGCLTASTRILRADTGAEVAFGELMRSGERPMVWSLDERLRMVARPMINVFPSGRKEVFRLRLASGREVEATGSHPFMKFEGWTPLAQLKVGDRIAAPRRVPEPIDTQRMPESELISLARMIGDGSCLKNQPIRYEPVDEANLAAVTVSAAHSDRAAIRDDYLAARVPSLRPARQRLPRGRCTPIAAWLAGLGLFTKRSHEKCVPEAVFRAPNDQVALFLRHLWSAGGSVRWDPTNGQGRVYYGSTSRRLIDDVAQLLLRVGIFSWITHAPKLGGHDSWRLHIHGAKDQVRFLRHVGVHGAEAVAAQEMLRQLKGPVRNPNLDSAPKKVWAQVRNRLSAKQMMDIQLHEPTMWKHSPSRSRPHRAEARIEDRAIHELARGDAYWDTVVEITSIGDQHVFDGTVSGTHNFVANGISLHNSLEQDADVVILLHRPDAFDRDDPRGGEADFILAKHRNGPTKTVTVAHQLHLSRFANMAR

Protein RecA = biological target: T6, Protein RecA (Mycobacterium tuberculosis, UniProt P9WHJ3); assay: Fluorescence Cell-Free Homogeneous Dose Retest to Identify Inhibitors of RecA-Intein Splicing Activity. [Related pubchem assays (depositor defined):AID2097, AID2223, AID489010, AID492950]; assay type: functional
T6 sequence (P9WHJ3 whole entry): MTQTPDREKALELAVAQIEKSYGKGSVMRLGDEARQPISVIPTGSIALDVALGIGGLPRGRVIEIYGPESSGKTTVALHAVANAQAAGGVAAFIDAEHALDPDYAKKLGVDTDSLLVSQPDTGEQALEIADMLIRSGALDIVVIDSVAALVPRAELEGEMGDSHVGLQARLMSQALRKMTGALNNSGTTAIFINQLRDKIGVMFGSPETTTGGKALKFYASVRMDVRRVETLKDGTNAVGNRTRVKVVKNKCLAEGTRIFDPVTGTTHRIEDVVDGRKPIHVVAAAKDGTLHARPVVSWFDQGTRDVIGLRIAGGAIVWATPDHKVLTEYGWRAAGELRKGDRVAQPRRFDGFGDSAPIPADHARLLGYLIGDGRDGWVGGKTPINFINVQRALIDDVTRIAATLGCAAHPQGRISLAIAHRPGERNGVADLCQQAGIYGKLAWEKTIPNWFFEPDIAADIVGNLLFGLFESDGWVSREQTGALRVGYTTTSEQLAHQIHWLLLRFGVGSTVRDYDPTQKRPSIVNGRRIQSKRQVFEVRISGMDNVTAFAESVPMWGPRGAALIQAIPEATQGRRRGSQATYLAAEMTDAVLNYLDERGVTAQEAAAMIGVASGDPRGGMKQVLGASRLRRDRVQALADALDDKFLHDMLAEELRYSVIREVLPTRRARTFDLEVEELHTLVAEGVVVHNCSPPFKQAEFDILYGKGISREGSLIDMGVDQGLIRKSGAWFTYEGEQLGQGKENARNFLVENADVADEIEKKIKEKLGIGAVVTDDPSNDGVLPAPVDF

Cytochrome P450 2D6 = Cytochrome P450 2D6 (Homo sapiens, UniProt P10635);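 note: CYP2D6 member of a cytochrome P450 panel assay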
Chain of Cytochrome P450 2D6 (P10635 whole entry): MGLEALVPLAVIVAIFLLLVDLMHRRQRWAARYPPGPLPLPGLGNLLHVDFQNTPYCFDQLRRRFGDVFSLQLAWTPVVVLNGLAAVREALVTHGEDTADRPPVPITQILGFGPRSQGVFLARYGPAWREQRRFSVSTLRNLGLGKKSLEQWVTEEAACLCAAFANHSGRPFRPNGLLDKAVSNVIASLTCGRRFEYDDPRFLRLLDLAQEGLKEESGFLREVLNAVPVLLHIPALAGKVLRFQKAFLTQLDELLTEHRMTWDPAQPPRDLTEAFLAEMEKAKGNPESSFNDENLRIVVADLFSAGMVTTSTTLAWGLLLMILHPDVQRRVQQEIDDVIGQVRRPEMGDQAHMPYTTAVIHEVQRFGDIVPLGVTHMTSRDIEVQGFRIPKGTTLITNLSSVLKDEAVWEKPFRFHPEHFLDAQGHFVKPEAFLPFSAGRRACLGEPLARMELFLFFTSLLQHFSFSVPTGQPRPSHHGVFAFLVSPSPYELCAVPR

Cytochrome P450 3A4 = Cytochrome P450 3A4 (Homo sapiens, UniProt P08684);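 note: CYP3A4 tested as one member of a cytochrome P450 panel screen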
[11] = biological target: T7, Voltage-gated N-type calcium channel alpha-1B subunit/Amyloid beta A4 precursor protein-binding family A member 1 (Homo sapiens, UniProt Q00975+Q02410); assay: disruptors of Mint-PDZ/N-type channel peptide interaction – biochemical, HTRF, set 2, SAR follow-up (AID 434980); assay type: functional
T7 sequence (Q00975 whole entry): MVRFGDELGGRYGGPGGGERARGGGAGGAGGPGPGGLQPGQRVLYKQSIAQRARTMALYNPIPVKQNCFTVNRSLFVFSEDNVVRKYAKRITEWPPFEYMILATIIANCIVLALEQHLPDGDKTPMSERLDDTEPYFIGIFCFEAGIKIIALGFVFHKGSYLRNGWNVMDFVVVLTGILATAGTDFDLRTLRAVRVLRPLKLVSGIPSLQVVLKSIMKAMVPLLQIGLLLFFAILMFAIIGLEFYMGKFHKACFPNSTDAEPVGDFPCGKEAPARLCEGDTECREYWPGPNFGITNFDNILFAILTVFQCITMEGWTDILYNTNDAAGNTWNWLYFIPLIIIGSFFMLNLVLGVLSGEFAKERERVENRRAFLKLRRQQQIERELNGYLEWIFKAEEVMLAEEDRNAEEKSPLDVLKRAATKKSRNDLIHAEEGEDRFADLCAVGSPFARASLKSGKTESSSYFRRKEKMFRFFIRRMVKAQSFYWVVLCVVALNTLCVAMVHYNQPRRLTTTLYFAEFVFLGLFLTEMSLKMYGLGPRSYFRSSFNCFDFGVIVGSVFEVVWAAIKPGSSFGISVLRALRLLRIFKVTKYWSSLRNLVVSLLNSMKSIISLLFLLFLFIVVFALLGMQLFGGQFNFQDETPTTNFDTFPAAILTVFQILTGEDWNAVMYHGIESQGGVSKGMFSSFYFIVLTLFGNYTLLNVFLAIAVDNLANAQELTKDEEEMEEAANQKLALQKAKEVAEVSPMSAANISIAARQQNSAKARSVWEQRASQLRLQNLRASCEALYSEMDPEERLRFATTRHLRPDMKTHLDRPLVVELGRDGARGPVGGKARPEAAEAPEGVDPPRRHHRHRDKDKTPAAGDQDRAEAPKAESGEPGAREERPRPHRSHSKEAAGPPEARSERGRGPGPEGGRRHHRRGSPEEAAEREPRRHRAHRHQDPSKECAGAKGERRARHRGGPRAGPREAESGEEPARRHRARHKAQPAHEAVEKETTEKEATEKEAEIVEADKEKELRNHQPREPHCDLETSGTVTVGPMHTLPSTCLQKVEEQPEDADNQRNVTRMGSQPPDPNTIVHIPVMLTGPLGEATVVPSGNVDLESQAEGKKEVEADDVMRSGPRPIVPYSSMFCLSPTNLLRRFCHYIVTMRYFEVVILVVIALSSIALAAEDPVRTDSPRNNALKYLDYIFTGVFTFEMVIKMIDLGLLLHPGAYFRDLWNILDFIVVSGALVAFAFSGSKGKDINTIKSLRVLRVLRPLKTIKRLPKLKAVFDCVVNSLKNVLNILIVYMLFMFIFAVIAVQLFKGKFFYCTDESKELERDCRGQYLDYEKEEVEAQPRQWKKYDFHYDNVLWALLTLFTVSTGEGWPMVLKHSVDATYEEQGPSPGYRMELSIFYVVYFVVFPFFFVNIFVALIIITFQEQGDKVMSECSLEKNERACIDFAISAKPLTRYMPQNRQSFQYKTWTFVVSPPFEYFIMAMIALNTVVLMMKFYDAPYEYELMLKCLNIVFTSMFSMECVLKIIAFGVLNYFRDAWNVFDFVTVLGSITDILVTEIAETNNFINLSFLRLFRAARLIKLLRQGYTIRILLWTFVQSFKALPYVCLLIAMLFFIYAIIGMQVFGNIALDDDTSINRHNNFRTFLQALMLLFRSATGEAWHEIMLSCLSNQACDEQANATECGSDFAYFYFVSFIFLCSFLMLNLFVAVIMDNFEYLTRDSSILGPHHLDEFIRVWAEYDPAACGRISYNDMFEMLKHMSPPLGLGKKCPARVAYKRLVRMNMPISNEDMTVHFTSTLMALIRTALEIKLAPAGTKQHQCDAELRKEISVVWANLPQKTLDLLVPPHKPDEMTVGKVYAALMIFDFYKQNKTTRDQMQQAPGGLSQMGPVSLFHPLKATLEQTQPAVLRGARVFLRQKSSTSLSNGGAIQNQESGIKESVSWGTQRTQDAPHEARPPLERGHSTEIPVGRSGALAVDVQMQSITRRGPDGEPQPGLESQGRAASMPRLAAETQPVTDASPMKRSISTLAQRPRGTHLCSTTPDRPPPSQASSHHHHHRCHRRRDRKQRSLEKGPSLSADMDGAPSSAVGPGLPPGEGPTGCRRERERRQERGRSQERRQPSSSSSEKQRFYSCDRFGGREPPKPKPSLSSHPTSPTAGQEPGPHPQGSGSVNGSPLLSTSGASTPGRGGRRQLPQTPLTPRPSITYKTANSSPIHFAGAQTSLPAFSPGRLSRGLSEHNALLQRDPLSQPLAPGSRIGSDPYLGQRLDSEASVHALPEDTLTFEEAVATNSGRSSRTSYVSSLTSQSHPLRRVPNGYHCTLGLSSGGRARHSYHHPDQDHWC
T7 sequence (Q02410 whole entry): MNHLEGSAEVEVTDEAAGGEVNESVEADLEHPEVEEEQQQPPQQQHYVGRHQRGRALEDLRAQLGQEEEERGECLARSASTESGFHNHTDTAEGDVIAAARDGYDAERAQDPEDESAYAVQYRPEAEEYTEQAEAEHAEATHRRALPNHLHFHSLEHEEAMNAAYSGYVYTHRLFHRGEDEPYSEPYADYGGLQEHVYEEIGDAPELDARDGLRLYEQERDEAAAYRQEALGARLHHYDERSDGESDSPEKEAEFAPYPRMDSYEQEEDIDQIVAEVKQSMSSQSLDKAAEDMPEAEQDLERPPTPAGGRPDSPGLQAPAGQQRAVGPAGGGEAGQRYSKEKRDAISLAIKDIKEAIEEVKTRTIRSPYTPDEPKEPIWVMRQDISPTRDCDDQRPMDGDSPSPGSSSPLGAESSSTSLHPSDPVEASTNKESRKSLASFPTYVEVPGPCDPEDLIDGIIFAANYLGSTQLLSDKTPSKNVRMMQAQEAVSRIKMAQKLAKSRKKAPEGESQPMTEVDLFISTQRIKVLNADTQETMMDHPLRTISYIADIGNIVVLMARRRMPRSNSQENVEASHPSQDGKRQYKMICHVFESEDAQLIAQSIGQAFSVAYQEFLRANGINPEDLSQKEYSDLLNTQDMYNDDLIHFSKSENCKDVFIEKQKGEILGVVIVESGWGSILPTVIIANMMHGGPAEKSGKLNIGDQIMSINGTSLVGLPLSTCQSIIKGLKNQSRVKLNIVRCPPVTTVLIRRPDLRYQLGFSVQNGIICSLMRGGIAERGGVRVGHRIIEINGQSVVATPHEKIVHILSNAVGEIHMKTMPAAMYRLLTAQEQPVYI

[12] = biological target: T7, Voltage-gated N-type calcium channel alpha-1B subunit/Amyloid beta A4 precursor protein-binding family A member 1; assay: disruptors of Mint-PDZ/N-type channel peptide interaction – biochemical, HTRF, SAR follow-up (AID 2489); assay type: functional
[13] = biological target: Glucose-6-phosphate 1-dehydrogenase (Homo sapiens, UniProt P11413); assay: human G6PD enzyme inhibitors, dose response, selectivity assay for P. falciparum G6PD inhibitor project, biochemical, fluorescence (AID 504792); assay type: functional

Structure (SMILES): O=C(CN1CCN(C(c2ccccc2)c2ccccc2)CC1)NC(=O)NCc1ccco1
- IC50 [1]: 0.468 µM (active)
- IC50 [2]: 0.439 µM (active)

Structure (SMILES): CCOC(=O)c1cnc(-n2nc(C)cc2C)nc1Nc1ccc(C)cc1
- IC50 [1]: 2.56 µM (active)
- EC50 [3]: 3.44 µM (active)
- IC50 [2]: 7.89 µM (active)
- EC50 (Streptokinase A): > 150 µM (not active)
- IC50 [4]: 5.74 µM (not active)
- EC50 (Streptococcus): > 150 µM (not active)

Structure (SMILES): O=C(NCc1ccccc1)c1ccc(Br)o1
- AC50 (Escherichia coli): 42.9 µM (active)

Structure (SMILES): COc1ccccc1NC(=O)Cn1c(O)c(N=NC(=O)c2ccccc2O)c2ccccc21
- IC50 (SUMO-activating enzyme [5]): 6.52 µM (active)
- IC50 (SUMO-activating enzyme [6]): 23.8 µM (active)
- IC50 (SUMO E1/E2): 71.1 µM (active)
- IC50 [7]: 2.74 µM (active)

Structure (SMILES): Cc1ccc(OCCn2cnc3c(N)ncnc32)cc1
- EC50 (HEK293 [8]): > 59.6 µM (inactive)
- EC50 (HEK293 [9]): > 59.6 µM (inactive)

Structure (SMILES): O=C(CSc1ncnc2c1nnn2Cc1ccccc1F)NCC1CCCO1 (configuration not stated)
- AC50 [10]: 15 µM (active)
- EC50 (Protein RecA): 16.5 µM (active)
- AC50 (Escherichia coli): 58.3 µM (active)

Structure (SMILES): Cc1sc2ccccc2[n+]1CCC(=O)O
- AC50 (Cytochrome P450 2D6): inconclusive

Structure (SMILES): C[C@@H]1/C=C\CC(=O)OC[C@H]2O[C@@H](C=C[C@@H]2O)[C@H](C)/C=C\CC(=O)OC1
- AC50 (Cytochrome P450 3A4): 5.01 µM (inconclusive)
- AC50 (Cytochrome P450 2D6): inconclusive

Structure (SMILES): COC(=O)c1ccc(CSc2ncnc3c2sc2nc(N4CCOCC4)c4c(c23)CCCC4)o1
- EC50 (HEK293 [8]): > 59.7 µM (inactive)
- EC50 (HEK293 [9]): > 59.7 µM (inactive)

Structure (SMILES): O=C(COC(=O)c1cc(-c2ccco2)nc2ccccc12)NCc1ccc(F)cc1
- IC50 (SUMO E1/E2): 4.64 µM (active)
- IC50 [11]: 11.1 µM (active)
- IC50 [12]: 30.4 µM (active)

Structure (SMILES): Cc1cc(O)nc(N/N=C/c2c(C)nn(-c3ccccc3)c2Cl)n1
- IC50 [13]: > 80 µM (inactive)
